Laboratory results reported in patent US11180509B2, “Thiazolidone spiro pyrimidine trione compound, preparation method therefor and uses thereof” (SHANGHAI INSTITUTE OF MATERIA MEDICA, CHINESE ACADEMY OF …, priority 2017, dated 2021).
Converted amounts (≈) assume the structure as drawn. Where two headings read alike, the source gives them in different places.

Legend:
Streptococcus pyogenes = assay: In vitro antibacterial activity, MIC by micro broth dilution; format: cell-based; details: read-out: MIC Spy
Source text: (§1) The following strains isolated in clinic were used in antibacterial activity screening in vitro: five strains of methicillin-resistant Staphylococcus aureus or MRSA, five strains of methicillin-sensitive Staphylococcus aureus or MSSA, five strains of methicillin-resistant Staphylococcus epidermidis or MRSE, five strains of methicillin-sensitive Staphylococcus epidermidis or MSSE, three strains of penicillin-resistant Streptococcus pneumoniae or PRSP, and three strains of Streptococcus pyogenes.
(§2) The above strains were clinically isolated pathogenic bacteria collected in Sichuan and Beijing in December 2015. They were identified by the collection unit via a VITEK-60 automatic microbiological identification instrument, and then re-identified by conventional methods in the laboratory. Before the experiment, each strain was purified by a single colony on an agar plate, and the cells freshly cultured at 37° C. overnight were appropriately diluted for the experiment. Quality control strain was Staphylococcus aureus ATCC25923 purchased from the Clinical Testing Center of the Ministry of Health of the People's Republic of China.
(§3) Medium: MH (Mueller-Hinton, hydrolyzed casein) broth (OXOID);
(§4) Culture condition: Incubate at 35-37° C. for 16-18 h.
(§5) The MIC value of each test sample for the tested strain was determined by micro broth dilution method recommended by Performance Standards for Antimicrobial Susceptibility Testing (Twenty-Third Informational Supplement; M02-A11, M07-A9 and M11-A8, 2013) of American Clinical and Laboratory Standards Institute (CLSI).
(§6) After diluting each test sample to different concentrations in MH broth, 100 μl of each sample solution at different concentrations was pipetted into a sterilized 96-well polystyrene plate. In the first to twelfth wells, the drug solution was added, and the final drug concentrations in each well were 64, 32, 16, 8, 4, 2, 1, 0.5, 0.25, 0.125, 0.06, and 0.03 mg/L. The well without drug and without bacteria was set as blank control well. The well with bacteria and without drug was set as a bacterial growth control well.
(§7) The test bacterial solution was adjusted with physiological saline to a bacterial suspension equivalent to 0.5 Maisson turbidity standard, and diluted 1:100 with MH broth. The drug solution was added so that the final concentration of the bacterial solution was about 10^4 CFU/ml; then 100 μl of bacterial solution was pipetted into the above wells (the total volume in each well was 200 μl). The plate was sealed and placed in a 35-37° C. incubator for 18-20 h, and then the results were determined. […] When Streptococcus pneumoniae was tested, sterile defibrillated sheep blood was added into the Colombian broth culture medium at a final concentration of 5% and cultivation was conducted in a 5% CO2 and 35-37° C. incubator for 18-20 hours.

[1] = tested on: methicillin-resistant Staphylococcus aureus or MRSA; assay: as above; format: cell-based; details: read-out: MIC MRSA
Source text: as §1, §2, §3, §4, §5, §6, §7

[2] = tested on: methicillin-resistant Staphylococcus epidermidis or MRSE; assay: as above; format: cell-based; details: read-out: MIC MRSE
Source text: as §1, §2, §3, §4, §5, §6, §7

[3] = tested on: methicillin-sensitive Staphylococcus aureus or MSSA; assay: as above; format: cell-based; details: read-out: MIC MSSA
Source text: as §1, §2, §3, §4, §5, §6, §7

[4] = tested on: methicillin-sensitive Staphylococcus epidermidis or MSSE; assay: as above; format: cell-based; details: read-out: MIC MSSE
Source text: as §1, §2, §3, §4, §5, §6, §7

[5] = tested on: penicillin-resistant Streptococcus pneumoniae or PRSP; assay: as above; format: cell-based; details: read-out: MIC PRSP
Source text: as §1, §2, §3, §4, §5, §6, §7

[6] = In vivo pharmacokinetics test in mice (oral); set-up: species or system CD-1 mice; details: PO 10.0 mg/kg; for AUC0→t / Cmax / MRT / t1/2 / Tmax: plasma; for Tmax: female, CD-1, mouse, read-out: Tmax
Description: Healthy female CD-1 mice were randomly divided into five groups and each group comprised three mice. The tested compound was administered orally.
0.030 mL of blood was taken from the orbit of each animal each time and anticoagulated with EDTAK2. The collection time was as follows. PO group: 15 m, 30 mi, 1 h, 2 h, 4 h, 6 h, 8 h, and 24 h after administration of the test compound. The collected blood samples were placed on ice and centrifuged within 30 minutes to separate the plasma (centrifugation conditions: 5000 rpm, 10 minutes, room temperature). The samples were stored at −80° C. before analysis.

[7] = tested on: MRSA, MSSA, MRSE, MSSE, PRSP, and Spy; assay: In vitro antibacterial activity over the whole strain panel, compared with AZD0914; format: cell-based; details: against MRSA
Source text: as §1, §2, §5, §6, §7

[8] = 3 clinical strains, range over strains

SMILES	MIC (Streptococcus pyogenes) [µg/mL]	MIC [1] [µg/mL]	MIC [2] [µg/mL]	MIC [3] [µg/mL]	MIC [4] [µg/mL]	MIC [5] [µg/mL]	AUC0→t relative to AZD0914 ([6]; multiple of the AZD0914 value) [times)]	Cmax relative to AZD0914 ([6]; multiple of the AZD0914 value) [times)]	AUC0→t [6] [ng·h/mL]	Cmax [6] [ng/mL]	MRT [6] [h]	t1/2 [6] [h]	Tmax [6] [h]	MIC (Streptococcus pyogenes; [8]) [µg/mL]	MIC ([4]; 5 clinical strains, range over strains) [µg/mL]	MIC [5, 8] [µg/mL]	in vitro antibacterial activity relative to AZD0914 [7]
C[C@@H]1CN2c3c(cc4c(N5C(=O)SC[C@H]5C)noc4c3F)CC3(C(=O)NC(=O)NC3=O)[C@H]2[C@H](C)O1 [Compound 4, (2R,4S,4aS)-11-fluoro-2,4-dimethyl-8-((R)-4-methyl-2-oxothiazolin-3-yl)-1,2,4,4a-tetrahydro-2′H,6H-spiro[isoxazole[4,5-g][1,4]oxazine[4,3-a]quinoline-5,5′-pyrimidine]-2′,4′,6′(1′H,3′H)-trione]	0.125 to 0.25 (≈ 0.248 to 0.497 µM)	0.03 to 0.5 (≈ 0.0596 to 0.993 µM)	0.03 to 0.125 (≈ 0.0596 to 0.248 µM)	0.25 to 0.5 (≈ 0.497 to 0.993 µM)	0.03 to 0.125 (≈ 0.0596 to 0.248 µM)	0.25 to 1 (≈ 0.497 to 1.99 µM)	–	–	–	–	–	–	–	–	–	–	–
C[C@@H]1CN2c3c(cc4c(N5C(=O)SC[C@@H]5C)noc4c3F)CC3(C(=O)NC(=O)NC3=O)[C@H]2[C@H](C)O1 [Compound 5, (2R,4S,4aS)-11-fluoro-2,4-dimethyl-8-((S)-4-methyl-2-oxothiazolin-3-yl)-1,2,4,4a-tetrahydro-2′H,6H-spiro[isoxazole[4,5-g][1,4]oxazine[4,3-a]quinoline-5,5′-pyrimidine]-2′,4′,6′(1′H,3′H)-trione]	0.125 to 0.25 (≈ 0.248 to 0.497 µM)	0.03 to 0.25 (≈ 0.0596 to 0.497 µM)	0.06 to 0.25 (≈ 0.119 to 0.497 µM)	0.25 to 0.5 (≈ 0.497 to 0.993 µM)	0.03 to 0.125 (≈ 0.0596 to 0.248 µM)	0.125 to 1 (≈ 0.248 to 1.99 µM)	–	–	–	–	–	–	–	–	–	–	–
COC[C@H]1CN(c2noc3c(F)c4c(cc23)CC2(C(=O)NC(=O)NC2=O)[C@H]2[C@H](C)O[C@H](C)CN42)C(=O)S1 [Compound 8, (2R,4S,4aS)-11-fluoro-8-((R)-5-(methoxymethyl)-2-oxothiazolin-3-yl)-2,4-dimethyl-1,2,4,4a-tetrahydro-2′H,6H-spiro[isoxazole[4,5-g][1,4]oxazine[4,3-a]quinoline-5,5′-pyrimidine]-2′,4′,6′(1′H,3′H)-trione]	0.25 to 0.5 (≈ 0.469 to 0.937 µM)	0.03 to 0.5 (≈ 0.0562 to 0.937 µM)	0.03 (≈ 0.0562 µM)	0.03 to 0.25 (≈ 0.0562 to 0.469 µM)	0.03 to 0.125 (≈ 0.0562 to 0.234 µM)	0.03 to 0.5 (≈ 0.0562 to 0.937 µM)	~11	~11	8240 ± 940	2051 ± 88	3.72 ± 0.76	2.51 ± 0.08	0.583 ± 0.382	–	–	–	–
C[C@@H]1CN2c3c(cc4c(N5C[C@@H](C)SC5=O)noc4c3F)CC3(C(=O)NC(=O)NC3=O)[C@H]2[C@H](C)O1 [Compound 3, (2R,4S,4aS)-11-fluoro-2,4-dimethyl-8-((R)-5-methyl-2-oxothiazolin-3-yl)-1,2,4,4a-tetrahydro-2′H,6H-spiro[isoxazole[4,5-g][1,4]oxazine[4,3-a]quinoline-5,5′-pyrimidine]-2′,4′,6′(1′H,3′H)-trione]	< 0.03	0.03 to 0.25 (≈ 0.0596 to 0.497 µM)	0.03 to 0.06 (≈ 0.0596 to 0.119 µM)	0.03 to 0.125 (≈ 0.0596 to 0.248 µM)	0.03 to 0.06 (≈ 0.0596 to 0.119 µM)	0.03 (≈ 0.0596 µM)	–	–	12034 ± 2835	2188 ± 223	4.85 ± 0.99	2.70 ± 0.143	0.583 ± 0.382	–	–	–	–
C[C@H]1COc2c(N3CCN(C)CC3)c(F)cc3c(=O)c(C(=O)O)cn1c23 [levofloxacin, reference compound]	–	–	–	–	–	–	–	–	–	–	–	–	–	0.5 to 1 (≈ 1.38 to 2.77 µM)	0.5 to 4 (≈ 1.38 to 11.1 µM)	1 (≈ 2.77 µM)	–
C=C1CN(c2noc3c(F)c4c(cc23)CC2(C(=O)NC(=O)NC2=O)[C@H]2[C@H](C)O[C@H](C)CN42)C(=O)S1 [Compound 25, (2R,4S,4aS)-11-fluoro-2,4-dimethyl-8-(5-methylene-2-oxothiazol-3-yl)-1,2,4,4a-tetrahydro-2′H,6H-spiro[isoxazole[4,5-g][1,4]oxazine[4,3-a]quinoline-5,5′-pyrimidine]-2′,4′,6′(1′H, 3′H)-trione]	< 0.03	< 0.03	< 0.03	< 0.03	< 0.03	< 0.03	–	–	–	–	–	–	–	–	–	–	about 8 times
